“Also recorded” adds a separate entry of the source. Where two headings read alike, the source gives them in different places. One block for each compound: values may come before it.
Legend:
[1] = Excretion study: effect of salicylamide on aspirin excretion; details: for Rate order of excretion of metabolites: first 24 hours, urine
Protocol: (§1) Male adult Sprague-Dawley rats (300-325 gm) obtained from Charles River Breeding Laboratory, N. Wilmington, Mass. were quarantined for one week. All animals were identified by ear punching. Food and water were provided ad libitum. The animals were maintained on rodent lab chow diet in a controlled environment with 50% humidity and 12 hour light/dark cycle.
The dose of radiolabeled ASA administered was 5 μCi per rat. Rats were fasted overnight prior to the administration of the treatments.
Rats were gavaged with the treatment solution and were immediately placed in Silverman metabolic glass chambers (Bioserv, Inc., Frenchtown, N.J.), one rat per chamber. Rats were administered water ad libitum while food was withheld until 1.5 hours following treatment administration. Urine was collected at 8, 16, 24, 48 and 72 hours. Feces were collected in preweighed clean plastic cups at 24, 48 and 72 hours after dosing. The expired air was channeled through a series of activated charcoal tubes to trap any radiolabeled compound that is excreted via the lungs and the tubes were collected at the end of the study 72 hours after dosing.
The urine samples were collected and the volume was measured using a 10 ml graduated glass pipette. The urine was shaken, and 100 μl of each urine sample were pipetted in a scintillation vial with 15 ml of Aquasol-2 for radioactivity assessment. The rest of the urine was stored at -70° C. for later analysis of its content of salicylic acid (SA) and salicyluric acid (SUA), the major metabolites of ASA.
Fecal weight was determined for each time-point collection and deionized water was added to feces in a ratio of feces:water, 1:3 (w/w).
The activated charcoal was carefully emptied in small glass tubes and extracted with 1 ml of methanol and the tubes were then centrifuged at 1800×g for 15 minutes.
Urine was further studied for its content of the ASA metabolites, namely SA and SUA. Waters HPLC system (Waters Chromatography, Division of Millipore, Milford, Mass.) with 3.9 mm×15 cm NOVA-PAK 4 μm silica packing steel column, C-18 Guard-Pak, and Milli-Q(tm) Millipore water filtration system were used for the characterization of SA and SUA. An isocratic methodology was developed and the separation was optimal by a mobile phase of 2% acetic acid/methanol, 70:30, at a flow rate of 1 ml/min. and a detection wavelength of 240 nm. One hundred μl of the collected 8 and 16 hour urine samples were diluted with 4 ml of methanol/mobile phase mixture (1:1) while the dilution was only with 2 ml for the 24, 48 and 72 hour urine samples.
The fractions under the specific retentiontimes of SA and SUA were collected in scintillation vials containing 15 ml of the scintillation cocktail and the radioactivity content was counted. The retention times of SA and SUA were determined by injection of authentic standard solution. Corrections have been made for the quenching effect of the mobile phase.
Student-t test and one way analysis of variance (ANOVA) followed by Scheffe multiple range test were used where appropriate. The accepted level of significance of difference was p<0.05.

[2] = Tissue distribution of aspirin and its metabolites (SA, SUA, GA, DBA) by HPLC after 14C-aspirin; details: for Aspirin level in tissues studied (plasma, lung, liver, heart, kidney): 1.5 hours after 14C-ASA alone or with SAM, low and high doses
Protocol: as §1
Forty-eight rats were divided into two groups. The first group of rats was administered ASA, SAM or their combination in a dose approximately equal (w/w) to that in the commercially available combinations, e.g., BC® formula, when administered to humans, i.e., 10 and 3 mg/kg of ASA and SAM, respectively. The second group was administered double the dosage received by the first group.
The rats were anesthetized by light diethyl ether inhalation. A blood sample of nearly 3 ml was collected by cardiac puncture 1.5 hours after oral administration. The blood was transferred to chilled polyethylene tubes containing 30 μl of 50% (w/w) potassium fluoride to prevent hydrolysis of ASA. A 300 μl aliquot was pipetted in a scintillation vial to study the distribution in whole blood. The rest of the collected blood was immediately centrifuged at 1800×g for 10 minutes at 4° C. and the plasma was decanted. 100 μl of the plasma were pipetted in a scintillation vial for measurement of the total radioactivity and the rest of the plasma was stored immediately at -70° C. for later study of the distribution of the metabolites.
Liver, kidney, plasma, lung and heart were stored at -70° C. for later study of their content of the metabolites of aspirin or salicylamide using an HPLC method. Liver, kidney and plasma of the rats treated with aspirin or the combination were also investigated for the presence of salicyl glucuronide conjugates by using HPLC and acid hydrolysis assays.
A Waters HPLC system (Waters Chromatography, Division of Millipore, Milford, Mass.) was used, consisting of: Waters 680 automated gradient controller, two model 510 pumps, model U6K universal liquid chromatography injector, Lambda Max model 481 variable wavelength UV/Vis absorbance detector, Data Module 730, 3.9 mm×15 cm NOVA-PAK 4 μm silica packing steel column, C-18 Guard-Pak, Hamilton syringes of 10, 100, and 250 μl capacity (Hamilton Co., Reno, Nev.), and Milli-Q(tm) Millipore water filtration system #CDOFO 1205 (Waters, Division of Millipore, Milford, Mass.).
1--For the analysis of ASA and its metabolites in tissues: the mobile phase was 2% acetic acid/methanol, 95:5, at a flow rate of 1.4 ml/minute.
The detection wavelength was 240 nm and the sensitivity of the detector was 0.02 AUFS (Absorbance Unit Full Scale).

[3] = cited from earlier work; for Absorption (ASA) / bioavailability (SAM) from oral solution vs solid forms: oral solutions vs tablets or suspensions
[4] = Tissue distribution of 14C-salicylamide (parent) by HPLC; format: in vivo, male Sprague-Dawley rats; details: for concentration at 1.5 h: rat
Source text: Forty-eight rats were divided into two groups.
The rats were anesthetized by light diethyl ether inhalation.

[5] = oral 14C-ASA 10 mg/kg, alone or with SAM 3 mg/kg
[6] = rat, in vivo, po, 10 mg/kg, 72 h

Compound: CC(=O)Oc1ccccc1C(=O)O [ASA, acetylsalicylic acid]
- Rate order of excretion of metabolites [1]: first-order rate fashion
- Aspirin level in tissues studied (plasma, lung, liver, heart, kidney) [2]: not detected in the plasma
- Aspirin level in tissues studied (plasma, lung, liver, heart, kidney) ([2]; listed as aspirin): not detected
- Apparent volume of distribution ([3]; children): 0.12 to 0.14 L/kg
- Fraction reaching the peripheral circulation intact ([3]; oral aspirin, man): about 68%
- Time of peak plasma concentration ([3]; oral soluble aspirin preparation, humans): 15 to 25 min
- Absorption (ASA) / bioavailability (SAM) from oral solution vs solid forms [3]: superior
- Absorption ([3]; oral, stomach and upper small intestine): rapidly and usually completely absorbed
- Change of 14C-SAM in lung by ASA ([4]; low and high dose combinations): significantly lower
- Change of 14C-SAM in kidney by ASA ([4]; low dose combination): significantly reduced
- Increase of 14C-SAM in liver with ASA ([4]; lower dose combination): about 50%

Compound: CC(=O)Oc1ccccc1[14C](=O)O [^14 C-ASA]
- 14C radioactivity recovered in urine ([1]; 14C-ASA alone or in combination with SAM): Almost all the ^14 C radioactivity
- SA share of the radioactivity excreted in urine ([1]; 14C-ASA alone or with SAM): more than 50%
- SUA share of the metabolites in urine ([1]; 14C-ASA alone or with SAM): approximately 15%
- 14C in expired air ([1]; 14C-ASA or 14C-CO2): No radioactivity was found
- Absorption from the gut ([1]; 14C-ASA oral): essentially a complete absorption
- Rate order of excretion of metabolites [1]: first-order rate pattern
- Urinary excretion of 14C, 0-72 hr [1, 5]: 3055 ± 23 μg ^14 C
- Urinary excretion of 14C, 8-16 hr [1, 5]: 619 ± 124 μg ^14 C
- Urinary excretion of 14C, 16-24 hr [1, 5]: 92 ± 26 μg ^14 C
- Urinary excretion of 14C, 24-48 hr [1, 5]: 60 ± 19 μg ^14 C
- Urinary excretion of 14C, 48-72 hr [1, 5]: 11 ± 3 μg ^14 C
- Urinary excretion of 14C, 0-8 hr ([1]; oral 14C-ASA 10 mg/kg, alone or with SAM 3 mg/kg, mean ± SE, n=6): 2227 ± 138 μg ^14 C
- Bioavailability of 14C ([1]; rat, in vivo, po, 10 mg/kg): 100%
- 14C excreted in feces [1, 6]: 1.0 ± 0.1 percentage of the dose
- 14C excreted in urine [1, 6]: 100.2 ± 0.8 percentage of the dose
- Recovery of the administered dose [1, 6]: 100%
- Total Recovery of 14C [1, 6]: 101.7 ± 0.8 percentage of the dose
- SUA in lung, heart, liver and plasma ([2]; 14C-ASA alone and with SAM): not detected; also recorded: The liver had no detectable level of SUA
- Difference in kidney 14C-SUA with or without SAM ([2]; low or high dose): no significant difference
- Gentisic acid and 2,3-dihydroxybenzoic acid in tissues ([2]; low or high dose): not detected

- Urinary SA, SUA and SA glucuronide, 0-8 hours ([1]; ASA coadministered with SAM vs ASA alone): higher in the urine
- Effect on urinary 14C, 0-8 hour period ([1]; SAM coadministered with 14C-ASA): increased
- Effect on urinary 14C, 8-28 hour period (so in the source) ([1]; SAM coadministered with 14C-ASA vs 14C-ASA alone): significantly decreased
- Urinary content of SA, SUA and SA glucuronide after 0-8 hours ([1]; SAM coadministration vs 14C-ASA alone): decreased
- Change of 14C-SA in kidney (low and high dose) and liver (high dose) ([2]; SAM with 14C-ASA): not markedly altered
- Parent SAM in plasma ([4]; 1.5 hours, 14C-SAM alone and with ASA, low and high doses): not detected
Compound: NC(=O)c1ccccc1O [SAM, Salicylamide]
- Effect on pattern of excretion of ASA metabolites in urine ([1]; SAM with 14C-ASA, low doses): did not affect the pattern of excretion of ASA metabolites in urine
- Absorption (ASA) / bioavailability (SAM) from oral solution vs solid forms [3]: superior

- 14C-SAM in heart ([4]; 14C-SAM 3 mg/kg with or without ASA 10 mg/kg): not detected
- 14C-SAM in heart ([4]; 1.5 hours, 14C-SAM 6 mg/kg alone or 14C-SAM/ASA 6/20 mg/kg): detected in the heart
- concentration at 1.5 h ([4]; heart, oral 14C-SAM 6 mg/kg, alone or with ASA 20 mg/kg, ND = not detected, read-out: 14C-salicylamide in heart): 2.9 ± 1.7 ng/g
- concentration at 1.5 h ([4]; kidney, oral 14C-SAM 3 mg/kg, alone or with ASA 10 mg/kg, read-out: 14C-salicylamide in kidney): 152 ± 13.4 ng/g
- concentration at 1.5 h ([4]; kidney, oral 14C-SAM 6 mg/kg, alone or with ASA 20 mg/kg, read-out: 14C-salicylamide in kidney): 181 ± 18.3 ng/g
- concentration at 1.5 h ([4]; liver, oral 14C-SAM 3 mg/kg, alone or with ASA 10 mg/kg, read-out: 14C-salicylamide in liver): 16.6 ± 5.3 ng/g
- concentration at 1.5 h ([4]; liver, oral 14C-SAM 6 mg/kg, alone or with ASA 20 mg/kg, read-out: 14C-salicylamide in liver): 29.4 ± 3.3 ng/g
- concentration at 1.5 h ([4]; lung, oral 14C-SAM 3 mg/kg, alone or with ASA 10 mg/kg, read-out: 14C-salicylamide in lung): 17.1 ± 3 ng/g
- concentration at 1.5 h ([4]; lung, oral 14C-SAM 6 mg/kg, alone or with ASA 20 mg/kg, read-out: 14C-salicylamide in lung): 41.9 ± 3.9 ng/g
Compound: N[14C](=O)c1ccccc1O [^14 C-SAM]

From patent publication US5389621A, “Method of enhancing the anticoagulant effects of aspirin using salicylamide” (University of Medicine and Dentistry of New Jersey, priority 1994, dated 1995)
